Results as given in patent US20260015436A1, “ANTIBODIES FOR CHELATED RADIONUCLIDES” (Hoffmann-La Roche Inc., priority 2018, published 2026).

System: BxPC3 tumors
Test: Protocol 103: efficacy of CEA-PRIT, s.c. BxPC3 tumors
Assay type: in vivo, SCID mice
Settings: result in words
Method: Step 1: Administration of a BsAb (i.v. or i.p.): The BsAb used in the studies binds Pb-DOTAM with high affinity and targets the tumor e.g. via CEA.
Step 2: Administration of CA (i.v. or i.p.): To allow efficient tumor accumulation of ^212Pb-DOTAM, circulating BsAb needs to be neutralized in the blood using a CA that blocks ^212Pb-DOTAM binding to unbound BsAb, without penetrating into the tumor and consequently blocking the pretargeted sites. The CA is administered once the BsAb has accumulated to a sufficient degree in the tumor, generally after 4-10 days. […]
The body weight (BW) of the study animals was measured at least 3 times per week, with additional measurements as needed depending on the health status. […]
where d indicates treatment day and 0 the baseline value. […] Tumor regression (TR) was calculated according to: […]
This study assessed the efficacy of CEA-PRIT using the CEA-DOTAM BsAb for treatment of s.c. BxPC3 tumors in mice. The therapy was administered either as a single treatment with 10 or 30 μCi of ^212Pb-DOTAM, or in three repeated cycles for each of the two radioactivity levels. […] Biodistributions were performed after the first and second cycle to confirm ^212Pb-DOTAM targeting and clearance, and the treatment efficacy was assessed in terms of TGI, TR, and survival. […]

With `NC(=O)CN1CCN(CC(N)=O)CCN(CC(N)=O)CCN(CC(N)=O)CC1.[212Pb+2]` [^212Pb-DOTAM] the “radiation-induced toxicity / tolerability” value (10 μCi) was “safe radioactivity level” and the “radiation-induced toxicity / tolerability” value (30 μCi) was “approaching the maximum tolerated activity”.
